Results reported in PubChem BioAssay (NCI).
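Exposure lasted 48 hours, with cells grown in 96-well plates and compounds tested at five concentrations. TGI denotes the concentration required for complete inhibition of growth.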

How the values were obtained:
Experiment in all cases: growth of human tumour cells (NCI), 48 h
PC-3 prostate = system: PC-3 prostate
LOX IMVI melanoma = system: LOX IMVI melanoma
MDA-MB-231 breast = system: MDA-MB-231 breast
RPMI-8226 leukemia = system: RPMI-8226 leukemia
SN12C renal = system: SN12C renal
KM12 colon = system: KM12 colon
MALME-3M melanoma = system: MALME-3M melanoma
M14 melanoma = system: M14 melanoma
NCI-H23 lung = system: NCI-H23 lung
HCT-116 colon = system: HCT-116 colon
786-0 renal = system: 786-0 renal
K-562 leukemia = system: K-562 leukemia
NCI-H226 lung = system: NCI-H226 lung
DU-145 prostate = system: DU-145 prostate
SR leukemia = system: SR leukemia
UACC-62 melanoma = system: UACC-62 melanoma
UACC-257 melanoma = system: UACC-257 melanoma
MOLT-4 leukemia = system: MOLT-4 leukemia
MDA-MB-435 = system: MDA-MB-435
SK-MEL-5 melanoma = system: SK-MEL-5 melanoma
T-47D breast = system: T-47D breast
HS 578T breast = system: HS 578T breast
SK-MEL-28 melanoma = system: SK-MEL-28 melanoma
SK-MEL-2 melanoma = system: SK-MEL-2 melanoma
COLO 205 colon = system: COLO 205 colon
UO-31 renal = system: UO-31 renal
OVCAR-5 ovarian = system: OVCAR-5 ovarian
OVCAR-4 ovarian = system: OVCAR-4 ovarian
SK-OV-3 ovarian = system: SK-OV-3 ovarian
HCC-2998 colon = system: HCC-2998 colon
MCF7 breast = system: MCF7 breast
SW-620 colon = system: SW-620 colon
HCT-15 colon = system: HCT-15 colon
MDA-N = system: MDA-N
A549 NSCLC = system: A549 NSCLC
HOP-62 NSCLC = system: HOP-62 NSCLC
ACHN renal = system: ACHN renal
TK-10 renal = system: TK-10 renal
EKVX NSCLC = system: EKVX NSCLC
IGROV1 ovarian = system: IGROV1 ovarian
HT29 colon = system: HT29 colon
SF-539 CNS = system: SF-539 CNS
SNB-75 CNS = system: SNB-75 CNS
SF-268 CNS = system: SF-268 CNS
SNB-19 CNS = system: SNB-19 CNS
OVCAR-3 ovarian = system: OVCAR-3 ovarian
U251 CNS = system: U251 CNS
NCI/ADR-RES ovarian = system: NCI/ADR-RES ovarian
NCI-H460 lung = system: NCI-H460 lung
RXF 393 renal = system: RXF 393 renal
CAKI-1 renal = system: CAKI-1 renal
NCI-H522 lung = system: NCI-H522 lung
CCRF-CEM leukemia = system: CCRF-CEM leukemia
A498 renal = system: A498 renal
BT-549 breast = system: BT-549 breast
SF-295 CNS = system: SF-295 CNS
OVCAR-8 ovarian = system: OVCAR-8 ovarian
HOP-92 NSCLC = system: HOP-92 NSCLC
HL-60(TB) leukemia = system: HL-60(TB) leukemia

## Cc1c2c(n(CCc3ccc(Cl)cc3)c1C)NN=C(C#N)S2(=O)=O
PC-3 prostate
  TGI: > 100 µM
LOX IMVI melanoma
  TGI: > 100 µM
MDA-MB-231 breast
  TGI: > 100 µM
RPMI-8226 leukemia
  TGI: > 100 µM
SN12C renal
  TGI: > 100 µM
KM12 colon
  TGI: > 100 µM
MALME-3M melanoma
  TGI: > 100 µM
M14 melanoma
  TGI: > 100 µM
NCI-H23 lung
  TGI: > 100 µM
HCT-116 colon
  TGI: > 100 µM
786-0 renal
  TGI: > 100 µM
K-562 leukemia
  TGI: > 100 µM
NCI-H226 lung
  TGI: > 100 µM
DU-145 prostate
  TGI: > 100 µM
SR leukemia
  TGI: > 100 µM
UACC-62 melanoma
  TGI: > 100 µM
UACC-257 melanoma
  TGI: > 100 µM
MOLT-4 leukemia
  TGI: > 100 µM
MDA-MB-435
  TGI: > 100 µM
SK-MEL-5 melanoma
  TGI: > 100 µM
T-47D breast
  TGI: > 100 µM
HS 578T breast
  TGI: > 100 µM
SK-MEL-28 melanoma
  TGI: > 100 µM
SK-MEL-2 melanoma
  TGI: > 100 µM
COLO 205 colon
  TGI: > 100 µM
UO-31 renal
  TGI: > 100 µM
OVCAR-5 ovarian
  TGI: > 100 µM
OVCAR-4 ovarian
  TGI: > 100 µM
SK-OV-3 ovarian
  TGI: > 100 µM
HCC-2998 colon
  TGI: > 100 µM
MCF7 breast
  TGI: > 100 µM
SW-620 colon
  TGI: > 100 µM
HCT-15 colon
  TGI: > 100 µM
MDA-N
  TGI: > 100 µM
A549 NSCLC
  TGI: > 100 µM
HOP-62 NSCLC
  TGI: > 100 µM
ACHN renal
  TGI: > 100 µM
TK-10 renal
  TGI: > 100 µM
EKVX NSCLC
  TGI: > 100 µM
IGROV1 ovarian
  TGI: > 100 µM
HT29 colon
  TGI: > 100 µM
SF-539 CNS
  TGI: > 100 µM
SNB-75 CNS
  TGI: > 100 µM
SF-268 CNS
  TGI: > 100 µM
SNB-19 CNS
  TGI: > 100 µM
OVCAR-3 ovarian
  TGI: > 100 µM
U251 CNS
  TGI: > 100 µM
NCI/ADR-RES ovarian
  TGI: > 100 µM
NCI-H460 lung
  TGI: > 100 µM

## O=C1/C(=C\c2cccc(Oc3ccccc3)c2)S(=O)(=O)C(c2ccccc2)N1Cc1ccccc1 (stereo unspecified)
RXF 393 renal
  TGI: 77.5 µM
PC-3 prostate
  TGI: > 100 µM
LOX IMVI melanoma
  TGI: 62.9 µM
MDA-MB-231 breast
  TGI: 68.1 µM
SN12C renal
  TGI: 58.6 µM
CAKI-1 renal
  TGI: 75 µM
KM12 colon
  TGI: 56.8 µM
NCI-H522 lung
  TGI: 33.7 µM
MALME-3M melanoma
  TGI: 37.8 µM
M14 melanoma
  TGI: 76.6 µM
NCI-H23 lung
  TGI: > 100 µM
HCT-116 colon
  TGI: > 100 µM
786-0 renal
  TGI: 40.1 µM
K-562 leukemia
  TGI: > 100 µM
CCRF-CEM leukemia
  TGI: > 100 µM
DU-145 prostate
  TGI: 74 µM
SR leukemia
  TGI: 46.2 µM
UACC-62 melanoma
  TGI: 57.7 µM
UACC-257 melanoma
  TGI: 62.2 µM
MOLT-4 leukemia
  TGI: 7.7 µM
A498 renal
  TGI: > 100 µM
MDA-MB-435
  TGI: 96.5 µM
SK-MEL-5 melanoma
  TGI: 39.3 µM
T-47D breast
  TGI: > 100 µM
BT-549 breast
  TGI: 98.6 µM
HS 578T breast
  TGI: 40.5 µM
SK-MEL-28 melanoma
  TGI: 93.2 µM
SK-MEL-2 melanoma
  TGI: 40.7 µM
COLO 205 colon
  TGI: 57 µM
UO-31 renal
  TGI: 47.9 µM
OVCAR-5 ovarian
  TGI: > 100 µM
SK-OV-3 ovarian
  TGI: > 100 µM
HCC-2998 colon
  TGI: 82.5 µM
MCF7 breast
  TGI: > 100 µM
SW-620 colon
  TGI: > 100 µM
HCT-15 colon
  TGI: 33.7 µM
MDA-N
  TGI: 95.5 µM
SF-295 CNS
  TGI: > 100 µM
A549 NSCLC
  TGI: > 100 µM
OVCAR-8 ovarian
  TGI: 53.4 µM
HOP-62 NSCLC
  TGI: > 100 µM
ACHN renal
  TGI: 49.4 µM
TK-10 renal
  TGI: > 100 µM
EKVX NSCLC
  TGI: 71.9 µM
HOP-92 NSCLC
  TGI: 73.3 µM
SF-539 CNS
  TGI: > 100 µM
SNB-19 CNS
  TGI: 55.6 µM
OVCAR-3 ovarian
  TGI: 34.2 µM
U251 CNS
  TGI: > 100 µM
NCI/ADR-RES ovarian
  TGI: 45 µM
NCI-H460 lung
  TGI: 40.9 µM
HL-60(TB) leukemia
  TGI: 57.7 µM

## O=C(NCCCN(CCCCN(CCCNC(=O)C(F)(F)F)Cc1ccccc1)Cc1ccccc1)C(F)(F)F
RXF 393 renal
  TGI: 32.6 µM
LOX IMVI melanoma
  TGI: 21.3 µM
MDA-MB-231 breast
  TGI: 34.1 µM
RPMI-8226 leukemia
  TGI: 40.5 µM
SN12C renal
  TGI: 36.5 µM
CAKI-1 renal
  TGI: 26.4 µM
KM12 colon
  TGI: 25.9 µM
NCI-H522 lung
  TGI: 22.3 µM
MALME-3M melanoma
  TGI: 28.4 µM
M14 melanoma
  TGI: 12.1 µM
NCI-H23 lung
  TGI: 30.9 µM
HCT-116 colon
  TGI: 23.6 µM
786-0 renal
  TGI: 25.1 µM
K-562 leukemia
  TGI: 30.6 µM
NCI-H226 lung
  TGI: 34.4 µM
CCRF-CEM leukemia
  TGI: 51.7 µM
DU-145 prostate
  TGI: 56.2 µM
UACC-62 melanoma
  TGI: 30.6 µM
UACC-257 melanoma
  TGI: 16.9 µM
MOLT-4 leukemia
  TGI: 39.9 µM
A498 renal
  TGI: 72.2 µM
MDA-MB-435
  TGI: 33.9 µM
SK-MEL-5 melanoma
  TGI: 14.9 µM
T-47D breast
  TGI: 40.6 µM
BT-549 breast
  TGI: 28.1 µM
HS 578T breast
  TGI: 31.4 µM
SK-MEL-28 melanoma
  TGI: 25.1 µM
COLO 205 colon
  TGI: 26.8 µM
UO-31 renal
  TGI: 17.4 µM
OVCAR-5 ovarian
  TGI: 40.8 µM
OVCAR-4 ovarian
  TGI: 68.1 µM
SK-OV-3 ovarian
  TGI: 36.1 µM
HCC-2998 colon
  TGI: 14.7 µM
MCF7 breast
  TGI: 24.7 µM
SW-620 colon
  TGI: 34.2 µM
HCT-15 colon
  TGI: 24.9 µM
MDA-N
  TGI: 29.1 µM
SF-295 CNS
  TGI: 30 µM
A549 NSCLC
  TGI: 59.5 µM
OVCAR-8 ovarian
  TGI: 26.9 µM
ACHN renal
  TGI: 30.1 µM
TK-10 renal
  TGI: 53.5 µM
EKVX NSCLC
  TGI: 25.3 µM
IGROV1 ovarian
  TGI: 26.2 µM
HT29 colon
  TGI: 19.2 µM
HOP-92 NSCLC
  TGI: 38.1 µM
SF-539 CNS
  TGI: 26.3 µM
SNB-75 CNS
  TGI: 27.9 µM
SF-268 CNS
  TGI: 25 µM
SNB-19 CNS
  TGI: 26.6 µM
NCI/ADR-RES ovarian
  TGI: 30.1 µM
NCI-H460 lung
  TGI: 22.1 µM
HL-60(TB) leukemia
  TGI: 36.3 µM

## CCN(CC)CCOc1ccc(N2C(=O)c3cc(OC)c(OC)cc3C2=O)cc1
RXF 393 renal
  TGI: > 100 µM
PC-3 prostate
  TGI: > 100 µM
LOX IMVI melanoma
  TGI: > 100 µM
MDA-MB-231 breast
  TGI: > 100 µM
RPMI-8226 leukemia
  TGI: > 100 µM
SN12C renal
  TGI: > 100 µM
CAKI-1 renal
  TGI: > 100 µM
KM12 colon
  TGI: > 100 µM
NCI-H522 lung
  TGI: > 100 µM
MALME-3M melanoma
  TGI: > 100 µM
M14 melanoma
  TGI: > 100 µM
NCI-H23 lung
  TGI: > 100 µM
HCT-116 colon
  TGI: > 100 µM
786-0 renal
  TGI: > 100 µM
K-562 leukemia
  TGI: > 100 µM
NCI-H226 lung
  TGI: > 100 µM
CCRF-CEM leukemia
  TGI: > 100 µM
DU-145 prostate
  TGI: > 100 µM
SR leukemia
  TGI: > 100 µM
UACC-62 melanoma
  TGI: > 100 µM
UACC-257 melanoma
  TGI: > 100 µM
MOLT-4 leukemia
  TGI: > 100 µM
A498 renal
  TGI: > 100 µM
MDA-MB-435
  TGI: > 100 µM
SK-MEL-5 melanoma
  TGI: > 100 µM
T-47D breast
  TGI: > 100 µM
BT-549 breast
  TGI: > 100 µM
HS 578T breast
  TGI: > 100 µM
SK-MEL-28 melanoma
  TGI: > 100 µM
SK-MEL-2 melanoma
  TGI: > 100 µM
COLO 205 colon
  TGI: > 100 µM
OVCAR-5 ovarian
  TGI: > 100 µM
OVCAR-4 ovarian
  TGI: > 100 µM
SK-OV-3 ovarian
  TGI: > 100 µM
HCC-2998 colon
  TGI: > 100 µM
MCF7 breast
  TGI: > 100 µM
SW-620 colon
  TGI: > 100 µM
HCT-15 colon
  TGI: > 100 µM
MDA-N
  TGI: > 100 µM
SF-295 CNS
  TGI: > 100 µM
A549 NSCLC
  TGI: > 100 µM
OVCAR-8 ovarian
  TGI: > 100 µM
HOP-62 NSCLC
  TGI: > 100 µM
ACHN renal
  TGI: > 100 µM
TK-10 renal
  TGI: > 100 µM
EKVX NSCLC
  TGI: > 100 µM
IGROV1 ovarian
  TGI: > 100 µM
HT29 colon
  TGI: > 100 µM
HOP-92 NSCLC
  TGI: > 100 µM
SF-539 CNS
  TGI: > 100 µM
SF-268 CNS
  TGI: > 100 µM
SNB-19 CNS
  TGI: > 100 µM
OVCAR-3 ovarian
  TGI: > 100 µM
U251 CNS
  TGI: > 100 µM
NCI/ADR-RES ovarian
  TGI: > 100 µM
NCI-H460 lung
  TGI: > 100 µM
HL-60(TB) leukemia
  TGI: > 100 µM
